One data set addresses T1, PPARα (Homo sapiens, UniProt Q07869).
T1 construct: pcDNA3.1-hPPARαLBD-Gal4DB; expressed in transfected cells; host or cells: 293E cells
T1 sequence (Q07869 239-466 limits assumed): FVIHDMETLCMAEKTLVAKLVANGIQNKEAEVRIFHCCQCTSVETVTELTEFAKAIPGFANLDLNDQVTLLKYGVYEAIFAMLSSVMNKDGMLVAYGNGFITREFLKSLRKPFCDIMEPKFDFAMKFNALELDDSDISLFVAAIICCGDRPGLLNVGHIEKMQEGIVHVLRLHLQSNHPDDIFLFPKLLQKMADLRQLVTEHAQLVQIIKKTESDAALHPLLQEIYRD
Description: In vitro PPARα transactivation assay (Gal4-hPPARαLBD luciferase reporter in 293E cells). The following applies: 10^−5 M, 24 h, Csamples/Ccontrol, mean±SEM. The format is cell-based. In general terms: Reporter assays use an easily measured gene product as a stand-in for the process of interest.

The target in data set [1] is T2, PPARγ (Homo sapiens, UniProt P37231).
T2 sequence (P37231 238-503 limits assumed): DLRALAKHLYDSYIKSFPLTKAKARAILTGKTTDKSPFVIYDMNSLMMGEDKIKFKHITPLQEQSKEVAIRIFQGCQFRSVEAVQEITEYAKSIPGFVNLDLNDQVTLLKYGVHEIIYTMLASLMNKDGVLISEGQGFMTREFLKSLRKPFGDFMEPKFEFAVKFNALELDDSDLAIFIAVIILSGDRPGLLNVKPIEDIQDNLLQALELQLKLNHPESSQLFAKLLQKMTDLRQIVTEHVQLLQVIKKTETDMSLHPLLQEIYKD

The target of data set [2] is T2, PPARγ. Description: cell-based.
Data set [3] addresses T2, PPARγ. Description: In vitro PPARγ transactivation assay (Gal4-hPPARγLBD luciferase reporter in 293E cells). The following applies: 10^−5 M, 24 h, Csamples/Ccontrol, mean±SEM.
A further data set has as its target T3, PPARδ (Homo sapiens, UniProt Q03181).
T3 sequence (Q03181 211-439 limits assumed): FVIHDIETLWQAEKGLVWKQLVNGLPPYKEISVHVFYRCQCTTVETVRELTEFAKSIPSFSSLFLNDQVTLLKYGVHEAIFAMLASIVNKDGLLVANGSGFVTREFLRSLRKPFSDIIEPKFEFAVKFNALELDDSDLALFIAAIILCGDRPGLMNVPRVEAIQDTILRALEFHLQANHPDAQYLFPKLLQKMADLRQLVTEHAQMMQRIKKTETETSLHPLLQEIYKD
Description: In vitro PPARδ transactivation assay (Gal4-hPPARδLBD luciferase reporter in 293E cells). The note with it: 10^−5 M, 24 h, Csamples/Ccontrol, mean±SEM.

As a reminder, the Cmax is the peak of the concentration-time curve. One may read the EC50 as the concentration at which the effect is half-maximal. The low end stands for greater potency, the high end for weaker potency. As for `CC(C)(Oc1cccc(OCCn2c3ccccc3c3ccccc32)c1)C(=O)O` [6g, 2-(3-(2-(9H-carbazol-9-yl)ethoxy)phenoxy)-2-methylpropanoic acid], on PPARα, the “PPARα Activation Fold” value is reported as 1.40±0.27. At PPARγ [1], this compound displayed a Cmax of 50 µM. This compound also gave a 50% effective concentration (EC50) on PPARγ [2] of 11.8 µM. Further, the “PPARγ Activation Fold” value on PPARγ [3] turned out to be 18.55±0.06. Also, the “PPARδ Activation Fold” value at PPARδ turned out to be 1.28±0.11.

In the case of `c1cc(OCCn2c3ccccc3c3ccccc32)cc(OCc2nn[nH]n2)c1` [10h, 9-(2-(3-((2H-tetrazol-5-yl)methoxy)phenoxy)ethyl)-9H-carbazole], the “PPARα Activation Fold” value on PPARα worked out at 0.81±0.02. For the same compound, the concentration at PPARγ [1] peaked (Cmax) at 30 µM. In addition, at PPARγ [2], a half-maximal response (EC50) required 6.97 µM. Besides, the “PPARγ Activation Fold” value at PPARγ [3] amounted to 26.81±1.56. Further, at PPARδ, the “PPARδ Activation Fold” value is given as 1.16±0.05.

The record behind these values is article PMC5400543, “Design, sythesis and evaluation of a series of 3- or 4-alkoxy substituted phenoxy derivatives as PPARs agonists” (Oncotarget, 2017).
